From US20260091136A1, “USING ENHO GENE THERAPY TO TREAT CARDIOMETABOLIC DISEASE” (University of Pittsburgh-of the Commonwealth System of …, priority 2023, published 2026)
Entries after “also recorded” stand apart in the source; their conditions may differ.

Assays:
HFpEF mice [1] = assay: Intraperitoneal glucose tolerance test (IPGTT), cohort 2; type: in vivo, C57BL/6J mice
Text: (§1) Twelve week-old C57BL/6J wild-type male mice were exposed to normal chow, or a combination of 60% high fat diet plus N^ω-nitro-L-arginine methyl ester (L-NAME: 0.5 g/L in drinking water) to induce HFpEF. After 8 weeks of diet, mice were randomly assigned to a control HFpEF group, or to a group receiving daily intraperitoneal injections of recombinant Adropin (450 nmol/kg) for the remaining weeks of the study. All animal experiments were approved by the University of Pittsburgh Institutional Animal Care and Use Committee. […] These changes occurred in the absence of systolic dysfunction (FIG. 6). Each marker of cardiac dysfunction was absent in HFpEF mice treated with Adropin (FIG. 6).
Animal Care and Use. Male C57BL/6J 8-week-old mice were obtained from the Jackson Laboratory and maintained on chow for 4 weeks to acclimate to their new environment. Animals were housed in the University of Pittsburgh animal facility under standard conditions with ad libitum access to water and food and maintained on a constant 12-hour light/dark cycle. […]
Intraperitoneal Glucose Tolerance Test (IPGTT). […] Blood glucose was measured by tail bleed at set time points using a Bayer Contour Next EZ handheld glucometer (t=15, 30, 45, 60, and 120 min).

HFpEF mice [2] = assay: Body weight, HFpEF (HFD+L-NAME) mice with daily i.p. recombinant adropin (cohort 2, Examples 3 and 4); type: in vivo, C57BL/6J mice; details: HFpEF+Adropin vs vehicle-treated HFpEF, 450 nmol/kg daily i.p., day 28
Text: as §1
Animal Care and Use. Male C57BL/6J 8-week-old mice were obtained from the Jackson Laboratory and maintained on chow for 4 weeks to acclimate to their new environment. Animals were housed in the University of Pittsburgh animal facility under standard conditions with ad libitum access to water and food and maintained on a constant 12-hour light/dark cycle. At 12 weeks of age, the mice were exposed to normal chow (Chow; 60% carbohydrate, 26% protein, 14% fat), or a combination of high-fat diet (HFD; 20% carbohydrate, 20% protein, 60% fat) plus No-nitro-L-arginine methyl ester (L-NAME: 0.5 g/L) supplemented in their drinking water after adjusting the pH to 7.4 with 1N NaOH to induce HFpEF [10]. […]

Substance: Adropin: recombinant Adropin peptide hormone encoded by the ENHO gene; full-length (SEQ ID NO: 1) or cleaved product of amino acids 34-76 (SEQ ID NO: 2) (CHSRSADVDSLSESSPNSSPGPCPEKAPPPQKPSHEGSYLLQP)
- increase in circulating blood glucose levels (IPGTT) (HFpEF mice [1]; HFpEF increase vs chow, after adropin treatment): significantly attenuated
- whole-body glucose tolerance / sensitivity (HFpEF mice [1]; HFpEF+Adropin vs HFpEF, 450 nmol/kg daily i.p.): significantly restored; also recorded: significantly improves
- absolute body weight (HFpEF mice [2]): not associated with a significant decrease; also recorded: does not significantly change
- absolute body weight (HFpEF mice [2]; listed as adropin): non-significant decrease
